Data: paper PMC7531004, “Discovery of gramicidin A analogues with altered activities by multidimensional screening of a one-bead-one-compound library” (Nature Communications, 2020)
Where a SMILES comes first, the peptide text is derived from it. [ ]: non-standard residue; d: D form. The star is where a group is joined. NHCH2CH2OH = OCCN*; For = O=C*

How the values were obtained:
[1] = H+/Na+ transport assay of bead-derived peptides (one-point); format: biochemical; parameters: key: relative activity; mean of two control wells = 1.00; details: bead-derived peptide solution, EYPC/EYPG LUVs;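 further: relative to parent gramicidin A activity set to 1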
Summary of the method: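 H+/Na+ transport is monitored through pyranine fluorescence in freshly extruded LUVs after a 30-min room-temperature vortex with each library peptide at a single concentration. Signals are normalized to detergent (Triton X-100) and untreated controls.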

[2] = test system: P388 mouse leukemia cells; details: 92 h
Summary of the method: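 First, library peptide stocks are diluted 250-fold in RPMI1640 with 10% heat-inactivated FBS. Next, they are mixed with P388 cells to give 1 × 10^4 cells/mL and incubated 92 h at 37 °C, 5% CO2. Finally, viability (%) is scored by WST-1 absorbance at 415 nm.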

[3] = test system: Streptococcus pyogenes SSI-9; experiment: Antibacterial activity assay of bead-derived peptides (three concentrations); format: cell-based; parameters: key: +++: inhibition by the 640-fold diluted peptide solution; ++: inhibition by the 160-fold diluted solution; +: inhibition by the 40-fold diluted solution; -: no inhibition; details: S. pyogenes, bead-derived peptide solution, three concentrations
Summary of the method: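 Bead-derived library peptide stocks in DMSO were tested undiluted and after 4- and 16-fold DMSO dilution against S. pyogenes SSI-9 (2 × 10^5 CFU/well) in cation-adjusted Mueller Hinton Broth with 5% laked horse blood. After 18 h at 37 °C, wells were scored for precipitation of grown cells.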

Row | SMILES | H+/Na+ transport activity normalized against the value of 1 (1.00) [1] | cell viability/% [2] [%] | antibacterial activity [3]
1 | CC(C)C[C@@H](NC(=O)[C@H](C)NC(=O)[C@H](NC(=O)[C@H](C)NC(=O)CNC(=O)[C@@H](NC=O)C(C)C)C(C)C)C(=O)N[C@H](C(=O)N[C@@H](C(=O)N[C@@H](Cc1c[nH]c2ccccc12)C(=O)N[C@@H](C(=O)N[C@@H](Cc1c[nH]c2ccccc12)C(=O)N[C@H](CC(C)C)C(=O)N[C@@H](Cc1c[nH]c2ccccc12)C(=O)N[C@@H](C(=O)N[C@@H](Cc1c[nH]c2ccccc12)C(=O)NCCO)C(C)C)C(C)C)C(C)C)C(C)C [compound 12950] (For-VGA[dV]A[dL]V[dV]W[dV]W[dL]W[dV]W-NHCH2CH2OH) | 1.08 | 97.0 | +
2 | CNC(=O)C[C@@H](NC(=O)[C@H](Cc1c[nH]c2ccccc12)NC(=O)[C@@H](CC(C)C)NC(=O)[C@H](Cc1c[nH]c2ccccc12)NC(=O)[C@H](NC(=O)[C@H](Cc1c[nH]c2ccccc12)NC(=O)[C@@H](CC(C)C)NC(=O)[C@@H](NC(=O)[C@H](NC(=O)[C@H](C)NC(=O)[C@H](NC(=O)[C@H](C)NC(=O)CNC(=O)[C@@H](NC=O)C(C)C)C(C)C)C(C)C)C(C)C)C(C)C)C(=O)N[C@@H](Cc1c[nH]c2ccccc12)C(=O)NCCO [compound 8400] (For-VGA[dV]A[dV]V[dL]W[dV]W[dL]W[dD](NHMe)W-NHCH2CH2OH) | 1.01 | 34.4 | -
3 | CC(C)C[C@@H](NC(=O)[C@H](C)NC(=O)CNC(=O)[C@@H](NC=O)C(C)C)C(=O)N[C@@H](C)C(=O)N[C@H](CC(C)C)C(=O)N[C@H](C(=O)N[C@@H](C(=O)N[C@@H](Cc1c[nH]c2ccccc12)C(=O)N[C@@H](C(=O)N[C@@H](Cc1c[nH]c2ccccc12)C(=O)N[C@@H](C(=O)N[C@@H](Cc1c[nH]c2ccccc12)C(=O)N[C@@H](C(=O)N[C@@H](Cc1c[nH]c2ccccc12)C(=O)NCCO)C(C)C)[C@H](C)O)C(C)C)C(C)C)C(C)C [compound 8749] (For-VGA[dL]A[dL]V[dV]W[dV]W[dT]W[dV]W-NHCH2CH2OH) | 1.05 | 62.2 | -
4 | CC(C)C[C@@H](NC(=O)[C@H](Cc1c[nH]c2ccccc12)NC(=O)[C@H](NC(=O)[C@@H](NC(=O)[C@H](NC(=O)[C@H](C)NC(=O)[C@H](NC(=O)[C@H](C)NC(=O)CNC(=O)[C@@H](NC=O)C(C)C)C(C)C)C(C)C)C(C)C)C(C)C)C(=O)N[C@@H](Cc1c[nH]c2ccccc12)C(=O)N[C@H](CC(C)C)C(=O)N[C@@H](Cc1c[nH]c2ccccc12)C(=O)N[C@@H](C(=O)N[C@@H](Cc1c[nH]c2ccccc12)C(=O)NCCO)[C@H](C)O [compound 5172] (For-VGA[dV]A[dV]V[dV]W[dL]W[dL]W[dT]W-NHCH2CH2OH) | 1.27 | 100.0 | ++
5 | CC(C)C[C@@H](NC(=O)[C@H](C)NC(=O)[C@H](NC(=O)[C@H](C)NC(=O)CNC(=O)[C@@H](NC=O)C(C)C)C(C)C)C(=O)N[C@H](C(=O)N[C@@H](C(=O)N[C@@H](Cc1c[nH]c2ccccc12)C(=O)N[C@@H](C(=O)N[C@@H](Cc1c[nH]c2ccccc12)C(=O)N[C@@H](C(=O)N[C@@H](Cc1c[nH]c2ccccc12)C(=O)N[C@H](CC(C)C)C(=O)N[C@@H](Cc1c[nH]c2ccccc12)C(=O)NCCO)C(C)C)C(C)C)C(C)C)C(C)C [compound 9192] (For-VGA[dV]A[dL]V[dV]W[dV]W[dV]W[dL]W-NHCH2CH2OH) | 1.07 | 100.0 | -
6 | CC(C)C[C@@H](NC(=O)[C@H](Cc1c[nH]c2ccccc12)NC(=O)[C@@H](CC(C)C)NC(=O)[C@@H](NC(=O)[C@H](NC(=O)[C@H](C)NC(=O)[C@H](NC(=O)[C@H](C)NC(=O)CNC(=O)[C@@H](NC=O)C(C)C)[C@H](C)O)C(C)C)C(C)C)C(=O)N[C@@H](Cc1c[nH]c2ccccc12)C(=O)N[C@@H](C(=O)N[C@@H](Cc1c[nH]c2ccccc12)C(=O)N[C@@H](C(=O)N[C@@H](Cc1c[nH]c2ccccc12)C(=O)NCCO)C(C)C)C(C)C [compound 11772] (For-VGA[dT]A[dV]V[dL]W[dL]W[dV]W[dV]W-NHCH2CH2OH) | 1.04 | 100.0 | -
7 | CNC(=O)C[C@@H](NC(=O)[C@@H](NC(=O)[C@H](NC(=O)[C@H](C)NC(=O)[C@@H](CC(C)C)NC(=O)[C@H](C)NC(=O)CNC(=O)[C@@H](NC=O)C(C)C)C(C)C)C(C)C)C(=O)N[C@@H](Cc1c[nH]c2ccccc12)C(=O)N[C@@H](C(=O)N[C@@H](Cc1c[nH]c2ccccc12)C(=O)N[C@H](CC(C)C)C(=O)N[C@@H](Cc1c[nH]c2ccccc12)C(=O)N[C@@H](C(=O)N[C@@H](Cc1c[nH]c2ccccc12)C(=O)NCCO)C(C)C)C(C)C [compound 8732] (For-VGA[dL]A[dV]V[dD](NHMe)W[dV]W[dL]W[dV]W-NHCH2CH2OH) | 1.11 | 72.4 | -
8 | CC(C)C[C@@H](NC(=O)[C@H](Cc1c[nH]c2ccccc12)NC(=O)[C@H](NC(=O)[C@@H](NC(=O)[C@H](NC(=O)[C@H](C)NC(=O)[C@H](NC(=O)[C@H](C)NC(=O)CNC(=O)[C@@H](NC=O)C(C)C)C(C)C)C(C)C)C(C)C)C(C)C)C(=O)N[C@@H](Cc1c[nH]c2ccccc12)C(=O)N[C@@H](C(=O)N[C@@H](Cc1c[nH]c2ccccc12)C(=O)N[C@@H](C(=O)N[C@@H](Cc1c[nH]c2ccccc12)C(=O)NCCO)C(C)C)C(C)C [compound 5570] (For-VGA[dV]A[dV]V[dV]W[dL]W[dV]W[dV]W-NHCH2CH2OH) | 1.26 | 96.8 | ++
9 | CC(C)C[C@@H](NC(=O)[C@H](C)NC(=O)CNC(=O)[C@@H](NC=O)C(C)C)C(=O)N[C@@H](C)C(=O)N[C@@H](C(=O)N[C@H](C(=O)N[C@@H](C(=O)N[C@@H](Cc1c[nH]c2ccccc12)C(=O)N[C@@H](C(=O)N[C@@H](Cc1c[nH]c2ccccc12)C(=O)N[C@H](CC(C)C)C(=O)N[C@@H](Cc1c[nH]c2ccccc12)C(=O)N[C@H](CC(C)C)C(=O)N[C@@H](Cc1c[nH]c2ccccc12)C(=O)NCCO)C(C)C)[C@H](C)O)C(C)C)C(C)C [compound 6225] (For-VGA[dL]A[dV]V[dT]W[dV]W[dL]W[dL]W-NHCH2CH2OH) | 1.10 | 80.8 | -
10 | CNC(=O)C[C@@H](NC(=O)[C@@H](NC(=O)[C@@H](CC(C)C)NC(=O)[C@H](C)NC(=O)[C@@H](CC(C)C)NC(=O)[C@H](C)NC(=O)CNC(=O)[C@@H](NC=O)C(C)C)C(C)C)C(=O)N[C@@H](Cc1c[nH]c2ccccc12)C(=O)N[C@H](CC(C)C)C(=O)N[C@@H](Cc1c[nH]c2ccccc12)C(=O)N[C@H](CC(C)C)C(=O)N[C@@H](Cc1c[nH]c2ccccc12)C(=O)N[C@H](CC(C)C)C(=O)N[C@@H](Cc1c[nH]c2ccccc12)C(=O)NCCO [compound 2444] (For-VGA[dL]A[dL]V[dD](NHMe)W[dL]W[dL]W[dL]W-NHCH2CH2OH) | 1.32 | 100.0 | -
11 | CC(C)C[C@@H](NC(=O)[C@H](C)NC(=O)CNC(=O)[C@@H](NC=O)C(C)C)C(=O)N[C@@H](C)C(=O)N[C@@H](C(=O)N[C@H](C(=O)N[C@H](CC(C)C)C(=O)N[C@@H](Cc1c[nH]c2ccccc12)C(=O)N[C@H](CC(C)C)C(=O)N[C@@H](Cc1c[nH]c2ccccc12)C(=O)N[C@H](CC(C)C)C(=O)N[C@@H](Cc1c[nH]c2ccccc12)C(=O)N[C@@H](C(=O)N[C@@H](Cc1c[nH]c2ccccc12)C(=O)NCCO)C(C)C)C(C)C)[C@H](C)O [compound 11302] (For-VGA[dL]A[dT]V[dL]W[dL]W[dL]W[dV]W-NHCH2CH2OH) | 1.05 | 49.1 | -
12 | CC(C)C[C@@H](NC(=O)[C@H](C)NC(=O)CNC(=O)[C@@H](NC=O)C(C)C)C(=O)N[C@@H](C)C(=O)N[C@@H](C(=O)N[C@H](C(=O)N[C@@H](C(=O)N[C@@H](Cc1c[nH]c2ccccc12)C(=O)N[C@H](CC(C)C)C(=O)N[C@@H](Cc1c[nH]c2ccccc12)C(=O)N[C@H](CC(C)C)C(=O)N[C@@H](Cc1c[nH]c2ccccc12)C(=O)N[C@H](CC(C)C)C(=O)N[C@@H](Cc1c[nH]c2ccccc12)C(=O)NCCO)[C@H](C)O)C(C)C)C(C)C [compound 2172] (For-VGA[dL]A[dV]V[dT]W[dL]W[dL]W[dL]W-NHCH2CH2OH) | 1.22 | 100.0 | +
13 | CC(C)C[C@@H](NC(=O)[C@H](C)NC(=O)[C@H](NC(=O)[C@H](C)NC(=O)CNC(=O)[C@@H](NC=O)C(C)C)C(C)C)C(=O)N[C@H](C(=O)N[C@@H](C(=O)N[C@@H](Cc1c[nH]c2ccccc12)C(=O)N[C@H](CC(C)C)C(=O)N[C@@H](Cc1c[nH]c2ccccc12)C(=O)N[C@@H](C(=O)N[C@@H](Cc1c[nH]c2ccccc12)C(=O)N[C@H](CC(C)C)C(=O)N[C@@H](Cc1c[nH]c2ccccc12)C(=O)NCCO)[C@H](C)O)C(C)C)C(C)C [compound 11374] (For-VGA[dV]A[dL]V[dV]W[dL]W[dT]W[dL]W-NHCH2CH2OH) | 1.07 | 45.1 | +
